From patent US20080293699A1, “Inhibitors of thapsigargin-induced cell death” (priority 2007, published 2008)
Entries after “also recorded” stand apart in the source; their conditions may differ.

Key:
[1] = tested on: ASK1 binding to 14-3-3 protein; assay: Co-immunoprecipitation of ASK1 with 14-3-3 in transfected 293T cells; type: cell-based; settings: thapsigargin-stimulated transfected 293T; 100 μM where stated
Experimental: Phosphorylation of ASK1 at various sites was inspected. 293T cells were transfected with pcDNA-ASK1-HA. One day later, cells were incubated with DMSO (0.4%) or 100 μM compound 6239507 (#1) for two hours. Cell extracts were prepared using lysis buffer and were subjected to immunoblotting using anti-phospho ASK1 antibodies or anti HA antibody as indicated (A). The relative density of each phosphorylated ASK band was calculated by imageJ software (B). In (C), compounds from (A) were compared in activity against thapsigargin-induced cell death. […] (D) 293T cells were transfected with pcDNA-ASK1-HA and pEBG-GST-14-3-3. One day later cells were incubated with DMSO (0.4%) or 100 μM of the indicated compound for two hours. Then cells were treated with thapsigargin (20 μM) for the indicated time. Cell extracts were prepared using lysis buffer, and 14-3-3 proteins were immunoprecipitated with […] sepharose beads. ASK1 protein binding with 14-3-3 was visualized by immunoblotting using anti-HA antibody. Anti-phospho ASK1 (ser967) antibody was used to detect phosphorylation of ASK1 at each time point. […]
The ser 967 site of ASK1 is known to down-regulate ASK1 activity by phosphorylation (Goldman et al., J. Biol. Chem. 279:10442-10449, 2004) via 14-3-3 binding. […] The relative density of each phosphorylated ASK band was calculated by imageJ software. […]

[2] = tested on: ASK1 (ser 967, ser 83, thr 845); assay: Phosphorylation of ASK1 sites in ASK1-transfected 293T cells (immunoblotting); type: cell-based; settings: for Phosphorylation of ASK1 at ser 83 and thr 845 / Phosphorylation of ASK1 at ser 967: ASK1-transfected 293T; for Phosphorylation of ASK1 at ser 83 and thr 845: up to 100 μM; for Phosphorylation of ASK1 at ser 967: 100 μM compound, two hours
Experimental: Phosphorylation of ASK1 at various sites was inspected. 293T cells were transfected with pcDNA-ASK1-HA. One day later, cells were incubated with DMSO (0.4%) or 100 μM compound 6239507 (#1) for two hours. Cell extracts were prepared using lysis buffer and were subjected to immunoblotting using anti-phospho ASK1 antibodies or anti HA antibody as indicated (A). The relative density of each phosphorylated ASK band was calculated by imageJ software (B). In (C), compounds from (A) were compared in activity against thapsigargin-induced cell death. […] (D) 293T cells were transfected with pcDNA-ASK1-HA and pEBG-GST-14-3-3. One day later cells were incubated with DMSO (0.4%) or 100 μM of the indicated compound for two hours. Then cells were treated with thapsigargin (20 μM) for the indicated time. Cell extracts were prepared using lysis buffer, and 14-3-3 proteins were immunoprecipitated with […] sepharose beads. ASK1 protein binding with 14-3-3 was visualized by immunoblotting using anti-HA antibody. Anti-phospho ASK1 (ser967) antibody was used to detect phosphorylation of ASK1 at each time point.
Thus, while not directly inhibiting ASK1 kinase activity, these events are predicted to reduce ASK1 in vivo kinase activity. It is possible that compound 5962123 inhibits a protein phosphatase that regulates phosphorylation of Ser967.
Suppression of thapsigargin-induced phosphorylation of p38MAPK was also measured by a quantitative ELISA-methods, with IC50 for p38MAPK phosphorylation estimated at <5 μM. In contrast, thapsigargin-induced expression of CHOP, expression of ATF4, proteolytic processing of ATF6, phosphorylation of eIF2a (Ser 51), auto-phosphorylation of Ire1a or auto-phosphorylation of ASK1 were not inhibited directly by CID-2878746 at concentrations up to 50 μM tested by in vitro kinase assay using p32-γ-ATP substrate. […] Thapsigargin-induced reductions in phosphorylation of ASK1 at the serine 967 site in ASK1 transfected 293T cells are inhibited by compound 5962123 at concentrations of 50-100 μM, as determined by immunoblotting using anti-phospho-specific (ser 967) antibody, but thapsigargin-induced changes in phosphorylation of ASK1 at ser 83 and thr 845 are not modulated by compound 5962123 at concentrations as high as 100 μM in ASK1-transfected HEK293T cells.
Experiments were also performed to determine whether compound 6239507 enhances phosphorylation of ASK1 at Ser 967 before and after ER stress induction (i.e., thapsigargin treatment). 293T cells were transfected with pcDNA-ASK1-HA. One day later, cells were incubated with DMSO (0.4%) or 100 μM compound 6239507 (#1) for two hours. Then cells were treated with thapsigargin (20 μM) for the indicated times. Cell extracts were prepared by lysis buffer and were subjected to immunoblotting with anti-phospho ASK1 Ser967 antibody or anti HA antibody. The relative density of phosphor ser967 bands were calculated by imageJ software (mean ±SD).
The ser 967 site of ASK1 is known to down-regulate ASK1 activity by phosphorylation (Goldman et al., J. Biol. Chem. 279:10442-10449, 2004) via 14-3-3 binding. […] 293T cells were transfected with pcDNA-ASK1-HA. One day later, cells were incubated with DMSO (0.4%) or 100 μM compound 6239507 (#1) for two hours. Cell extracts were prepared using lysis buffer and were subjected to immunoblotting using anti-phospho ASK1 antibodies or anti HA antibody as indicated. The relative density of each phosphorylated ASK band was calculated by imageJ software. The compounds were compared in activity against thapsigargin-induced cell death. 293T cells were transfected with pcDNA-ASK1-HA and pEBG-GST-14-3-3. One day later cells were incubated with DMSO (0.4%) or 100 μM of the indicated compound for two hours. Then cells were treated with thapsigargin (20 μM) for the indicated time. Cell extracts were prepared using lysis buffer, and 14-3-3 proteins were immunoprecipitated with […] sepharose beads. […]

| Structure (SMILES) | Binding of ASK1 to 14-3-3 protein [1] | Phosphorylation of ASK1 at ser 83 and thr 845 [2] | Thapsigargin-stimulated dephosphorylation of ASK1 at serine 967 ([2]; ASK1-transfected HEK293T, 50 μM, 50-100 μM) | Phosphorylation of ASK1 at ser 967 [2] | Phosphorylation of ASK1 at ser 967 ([2]; listed as 1) |
| --- | --- | --- | --- | --- | --- |
| CCN(CC)c1ccc(C2Nc3ccccc3NC3=C2C(=O)CC(c2ccccc2)C3)cc1 (stereo not drawn) [Compound 5962123, 6-(4-diethylaminophenyl)-9-phenyl-5,6,8,9,10,11-hexahydrobenzo[c][1,5]benzodiazepin-7-one] | increased 14-3-3 binding to ASK1; also recorded: increases binding | not modulated | inhibited | – | – |
| COc1ccc(C2CC(=O)C3=C(C2)Nc2ccccc2NC3c2ccccc2C(F)(F)F)cc1OC (stereo not drawn) [Compound 6237735] | – | not ser 83 or thr 845 | – | enhanced phosphorylation of ser 967 only | – |
| COc1ccc(C2CC(=O)C3=C(C2)Nc2ccccc2NC3c2cccc(Oc3ccccc3)c2)cc1OC (stereo not drawn) [Compound 6239507] | inhibits dissociation of 14-3-3 from ASK1 | not ser 83 or thr 845 | – | enhance phosphorylation; also recorded: intensified | enhanced phosphorylation of ser 967 only |
